Measured values taken from publication PMC8599359 (Molecular Neurobiology, 2021).

Tested on: MMP
Experiment: Broad-spectrum MMP activity in embryonic brain (fluorometric substrate)
Format: in vivo, mouse
Conditions: GD 16.5, dams 50 mg/kg/day oral GD 0.5-15.5, compared to controls
Procedure: Broad-spectrum MMP activity was measured in whole brain tissue homogenates of normal, viable embryos (GD 16.5) using a quenched fluorogenic substrate, OMNIMMP® RED (BML-P277-0100, Enzo Life Sciences). Whole brain tissues were isolated from randomly selected embryos from different dams for both DTG and control groups. Tissues were homogenized in NP-40 lysis buffer using a Qiagen TissueLyzer II (Valencia, CA). Tissue lysates were centrifuged at 16,000 g at 4 °C for 20 min and supernatants were collected. Total protein levels in each sample were quantitated using Pierce™ BCA Protein Assay Kit (Thermo Fisher Scientific, Waltham, MA). The assays were performed in a 96-well, black, flat, microplate format. Fifty micrograms of protein for each sample was incubated with buffer (BML-KI175-0020, Enzo Life Sciences) at 37 °C for 60 min. Each sample was platted in duplicates. Later, reaction was started by adding fluorogenic substrate. Plate was read at similar instructions mentioned above for fluorometric substrate assay. Ilomastat (GM6001; broad-spectrum MMP inhibitor, ab120845, abcam) was added to randomly selected protein samples in additional wells at 20 µM concentration as an assay control.

SMILES: C[C@@H]1CCO[C@H]2Cn3cc(C(=O)NCc4ccc(F)cc4F)c(=O)c(O)c3C(=O)N12 [DTG, Dolutegravir]
- Broad-spectrum MMP activity in embryonic brain: significantly inhibited
